Data taken from publication PMC3161871, “Heteroarylketones inhibit astroglial interleukin-6 expression via a STAT3/NF-κB signaling pathway” (Journal of Neuroinflammation, 2011).

Key:
[1] = target: T1, human recombinant prolyl endopeptidase (PREP) (Homo sapiens, UniProt P48147); assay: PREP enzymatic activity assay (Z-Gly-Pro-pNA, photometric); type: biochemical; conditions: recombinant PREP, Z-Gly-Pro-pNA 62.5/125/250 μM, pH 7.6, 30°C, competitive fit
T1 construct: made in house
T1 sequence (P48147 1-710): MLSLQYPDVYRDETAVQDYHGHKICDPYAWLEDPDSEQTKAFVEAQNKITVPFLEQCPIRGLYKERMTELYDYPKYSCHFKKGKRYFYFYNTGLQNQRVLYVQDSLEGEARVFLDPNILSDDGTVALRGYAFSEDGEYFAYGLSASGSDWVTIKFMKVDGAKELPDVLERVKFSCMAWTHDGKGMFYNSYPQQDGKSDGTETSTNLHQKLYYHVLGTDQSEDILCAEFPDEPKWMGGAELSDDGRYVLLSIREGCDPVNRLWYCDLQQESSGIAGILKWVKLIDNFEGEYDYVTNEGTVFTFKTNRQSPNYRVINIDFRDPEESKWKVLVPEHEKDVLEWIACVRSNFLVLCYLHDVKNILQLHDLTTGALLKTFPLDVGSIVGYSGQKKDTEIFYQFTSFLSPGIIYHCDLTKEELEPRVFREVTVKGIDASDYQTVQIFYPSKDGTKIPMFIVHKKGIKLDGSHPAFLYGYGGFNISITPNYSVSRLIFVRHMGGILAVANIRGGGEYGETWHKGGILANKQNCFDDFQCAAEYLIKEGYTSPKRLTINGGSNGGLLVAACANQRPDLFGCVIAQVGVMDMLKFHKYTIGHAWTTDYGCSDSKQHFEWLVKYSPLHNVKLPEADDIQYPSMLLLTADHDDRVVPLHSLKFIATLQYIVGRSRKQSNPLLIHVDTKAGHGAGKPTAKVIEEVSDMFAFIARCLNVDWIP
Experimental: The activity of human recombinant prolyl endopeptidase (PREP) was determined photometrically using the substrate Z-Gly-Pro-pNA (Bachem, Weil am Rhein, Germany) usually at a concentration of 150 μM. As assay buffer 50 mM HEPES buffer pH 7.6, containing 200 mM NaCl, 1 mM EDTA, and 1 mM dithiothreitol was used. Release of pNA was monitored continuously at 405 nm for 15 min at 30°C in a 96-well plate reader (Spectrafluor, Tecan, Crailsheim, Germany). PREP activity was calculated from the slope of the time product curve with the help of a pNA standard. For determination of Ki values three different substrate concentrations (62.5 μM; 125 μM and 250 μM) and seven different inhibitor concentrations were analyzed. Substrate concentrations were selected to be at the Km value of Z-Gly-Pro-pNA (125 μM) as well as half and twice the Km. Data were fitted by non-linear regression to the competitive inhibitor equation (Graphit 5.0, Erithacus software).

[2] = tested on: LPS-induced IL-6 expression in C57/B6 mice; assay: LPS-induced acute septic shock model (IL-6 in plasma, hippocampus, cortex); type: in vivo, mouse; conditions: 1 mg/kg LPS i.p., HAK-2 in parallel, 2 h
Experimental: A total number of 20 C57/B6 mice at the age of 5 months with an initial body weight of 22 g to 30 g was analyzed in this study. Mice were randomly assigned to 2 groups of control mice (injection of saline or LPS; n = 6 each) and 1 group of LPS-treated mice co-injected with compound HAK-2 (n = 8). Animals were housed at the Experimental Animal Core Facility of the University of Leipzig. The study was approved by the Regierungspräsidium Leipzig, License # TVV 28/07 on November 14, 2007. To induce septic shock and acute inflammation, 14 mice were injected intraperitoneally (i.p.) with 1 mg LPS (Serotyp 055:B5)/kg body weight. Saline injection i.p. was used as control treatment (n = 6). […] Two hours post treatment mice were sacrificed by CO2 inhalation and tissue samples from hippocampus and cortex as well as plasma were prepared as described later.
Mouse brain samples for qRT-PCR were prepared from 6 - 8 animals per group. After removal of the brain, the tissue samples were flushed shortly with ice cold saline and placed briefly on filter paper. Cortex and hippocampus were prepared, weighted and snap frozen in liquid nitrogen. Samples were stored at -80°C until RNA isolation. […]
Total RNA of cultured cells and homogenized mouse brain tissue samples was isolated using RNA isolation kit "NucleoSpin RNA II" from Macherey and Nagel. RNA quantity was measured by spectrophotometrical quantification (NanoDrop 2000, Peqlab, Erlangen, Germany). […] Quantitative real-time PCR was performed with QuantiFast SYBR Green PCR Master mix (Qiagen, Hilden, Germany) using Rotorgene 3000 system (Corbett, Sydney, Australia). […] Data were analyzed by Rotorgene 3000 Software version 6.0 by comparative quantitation. […]
Figure 6 Suppression of LPS-induced IL-6 expression in vivo by compound HAK-2. […] After 2 hours treatment, samples from hippocampus (A), cortex (B) and plasma (C) were prepared and analyzed by qRT-PCR and ELISA, respectively. […] Statistically significant differences between LPS group and LPS + HAK-2 group were calculated using the unpaired t-test (*p < 0.05; **p < 0.01; ***p < 0.001).

[3] = tested on: OSM-stimulated IL-6 secretion from U343 cells; assay: OSM-induced IL-6 release from U343 glioma cells (IL-6 ELISA of conditioned medium); type: cell-based, human; conditions: 20 μM compound, vehicle-transfected U343 cells, OSM 6 h

- Ki [1]: 0.038 nM
SMILES: C[C@H](NC(=O)OCc1ccccc1)C(=O)N1CCC[C@H]1C(=O)c1nc2ccccc2s1 [HAK-2, Z-Ala-Pro-BTh]
- Reduction of induced IL-6 mRNA in cortex [2]: 53%
- Reduction of induced IL-6 mRNA in hippocampus [2]: 60%
- Reduction of plasma level of IL-6 protein vs LPS alone [2]: 55%
- IL-6 levels (mRNA and released protein) in the PREP knock-down experiment [3]: reduces IL-6 levels
